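Protocol summary: plate cells (96-well), add compound at 5 concentrations, incubate 48 h, interpolate endpoints linearly. Here, GI50 denotes the concentration required for 50% inhibition of growth.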 Active and inactive are the calls of the source. Rule as the data show it: active = GI50 up to about 1.1 µM and inactive = higher.

This note sets out measurements from ChEMBL document CHEMBL1201862, “PubChem BioAssay data set” (2004).

Some test systems named below: SF-295; SK-MEL-2; HCT-15; 786-0; K562; NCI-H23; UO-31; HOP-62; LXFL 529; A549; NCI-H226; HT-29; Malme-3M; HL-60; OVCAR-3; SNB-75; SF-539; SNB-19; OVCAR-5; BT-549.
What all share (experiment): NCI-60 cell line screen, 48 h

As to `CC1=C2C(=O)O[C@@H](c3ccoc3)[C@]2(C)CCC1` [FRAXINELLONE], the GI50 in the assay on SF-295 was > 100 µM (inactive); in the assay with SK-MEL-2 it was > 100 µM (inactive); with HCT-15, above 100 µM; with 786-0, > 100 µM (inactive); in the assay on K562, > 100 µM (inactive); in the assay on NCI-H23, > 100 µM (inactive). For the same compound, the GI50 in the assay on UO-31, in the assay on HOP-62, in the assay with LXFL 529, in the assay with A549, with NCI-H226 and with HT-29 was > 100 µM (inactive) throughout. Moreover, the GI50 with Malme-3M was > 100 µM (inactive); with HL-60, > 100 µM (inactive); with OVCAR-3, > 100 µM (inactive); in the assay on SNB-75, 77.1 µM (inactive); with SF-539, > 100 µM (inactive); in the assay with SNB-19, > 100 µM (inactive). Further, in the assay with OVCAR-5, the GI50 is > 100 µM (inactive).
Take `CC(=O)OCC1OC(N2C(=O)C(=O)c3cc(C)ccc32)C(OC(C)=O)C(OC(C)=O)C1OC(C)=O` (configuration not stated): the GI50 in the assay on SF-295 is > 100 µM (inactive); in the assay with SK-MEL-2 it was > 100 µM (inactive); in the assay on HCT-15, 52.8 µM; in the assay on 786-0 it was 38.9 µM (inactive); in the assay on K562, > 100 µM (inactive); in the assay on NCI-H23, 52.1 µM (inactive). In addition, the GI50 in the assay on UO-31 was > 100 µM (inactive); in the assay on HOP-62, > 100 µM (inactive); with LXFL 529 it was > 100 µM (inactive); in the assay on A549, > 100 µM (inactive); in the assay on NCI-H226, > 100 µM (inactive); in the assay with HT-29 it was 37.2 µM (inactive). In addition, the GI50 in the assay with Malme-3M was > 100 µM (inactive); in the assay on HL-60, 22.4 µM (inactive); in the assay with OVCAR-3 it was 99.3 µM (inactive); in the assay with SNB-75, > 100 µM (inactive); with SF-539, > 100 µM (inactive); in the assay on SNB-19, > 100 µM (inactive). The GI50 with OVCAR-5 is > 100 µM (inactive).
As for `CC1CN(c2ccc(Cl)cc2)CC(C)(C)OC(=O)O1` (configuration not stated), the GI50 in the assay with SF-295 was > 100 µM (inactive); in the assay with SK-MEL-2, > 100 µM (inactive); with HCT-15, above 100 µM; in the assay on 786-0, > 100 µM (inactive); with K562, > 100 µM (inactive); with NCI-H23, > 100 µM (inactive). In addition, the GI50 in the assay with UO-31, in the assay on HOP-62, in the assay with LXFL 529, in the assay with A549, with NCI-H226 and in the assay with HT-29 was > 100 µM (inactive) throughout. The GI50 in the assay on Malme-3M, in the assay with HL-60, with OVCAR-3, in the assay on SNB-75, with SF-539 and in the assay on SNB-19 was > 100 µM (inactive) each time. Further, the GI50 in the assay with OVCAR-5 was > 100 µM (inactive).
As to `O=C1C2C3CCC(C2C(=O)N1CO)C1C2C(=O)N(CO)C(=O)C2C31` (configuration not stated), the GI50 with SF-295 was > 64.9 µM (inactive); with SK-MEL-2, 36 µM (inactive); in the assay with HCT-15, 26.5 µM; in the assay on 786-0, 43.3 µM (inactive); in the assay with K562, 35.2 µM (inactive); in the assay with NCI-H23, > 87.9 µM (inactive). In addition, the GI50 in the assay with UO-31 was > 100 µM (inactive); in the assay on HOP-62, > 100 µM (inactive); with LXFL 529 it was 55.3 µM (inactive); with A549 it was 31 µM (inactive); in the assay on NCI-H226, > 81.7 µM (inactive); with HT-29, 58.7 µM (inactive). The GI50 with Malme-3M was > 100 µM (inactive); in the assay on HL-60 it was 12 µM (inactive); in the assay with OVCAR-3, > 100 µM (inactive); in the assay with SNB-75 it was 50.6 µM (inactive); in the assay with SF-539 it was 43 µM (inactive); in the assay on SNB-19 it was > 100 µM (inactive). Also, the GI50 in the assay with OVCAR-5 was > 100 µM (inactive).
In the case of `CCC(C)NC1=C(NC(C)=O)C(=O)c2ccccc2C1=O` (configuration not stated), the GI50 with SF-295 is > 75 µM (inactive); with SK-MEL-2, > 75 µM (inactive); with HCT-15, 46.1 µM; in the assay on 786-0 it was > 7.5 µM (inactive); in the assay with K562, 43.9 µM (inactive); with NCI-H23, > 75 µM (inactive). Also, the GI50 was > 75 µM (inactive) in the assay with UO-31; > 75 µM (inactive) in the assay on HOP-62; 54.8 µM (inactive) in the assay with LXFL 529; > 75 µM (inactive) in the assay on A549; > 75 µM (inactive) with NCI-H226; 54.1 µM (inactive) in the assay with HT-29. Besides, the GI50 in the assay on Malme-3M is > 75 µM (inactive); in the assay on HL-60 it was 17.5 µM (inactive); in the assay on OVCAR-3, 40.6 µM (inactive); in the assay on SNB-75, > 75 µM (inactive); with SF-539 it was > 75 µM (inactive); in the assay on SNB-19 it was > 75 µM (inactive). Moreover, the GI50 in the assay on OVCAR-5 was > 75 µM (inactive).
As to `COc1ccc(N2C(=O)C3c4[nH]c5ccccc5c4C4CCCCCCC4C3C2=O)cc1` (configuration not stated), the GI50 with SF-295 is 11.6 µM (inactive); in the assay on SK-MEL-2 it was 26.2 µM (inactive); in the assay with HCT-15 it was 6.71 µM; with 786-0, 3.13 µM (inactive); in the assay on K562, 10.1 µM (inactive); in the assay on NCI-H23, 13.1 µM (inactive). Besides, the GI50 was 17.4 µM (inactive) in the assay with UO-31; 8.22 µM (inactive) in the assay with HOP-62; 6.08 µM (inactive) in the assay with LXFL 529; 6.76 µM (inactive) with A549; 12.4 µM (inactive) in the assay with NCI-H226; 23 µM (inactive) with HT-29. Also, the GI50 was 16.6 µM (inactive) with Malme-3M; 22.5 µM (inactive) with HL-60; 5.93 µM (inactive) with OVCAR-3; 11.9 µM (inactive) in the assay with SNB-75; 7.74 µM (inactive) in the assay with SF-539; 10.2 µM (inactive) with SNB-19. Also, in the assay with OVCAR-5, the GI50 is > 52.1 µM (inactive).
Take `Cc1ccc(C(=O)OCC(C)C)cc1/N=N/N(C)C`: the GI50 was 27 µM (inactive) in the assay on SF-295; > 100 µM (inactive) in the assay on SK-MEL-2; 48.1 µM with HCT-15; > 81.5 µM (inactive) with 786-0; > 100 µM (inactive) with K562; 34.8 µM (inactive) in the assay with NCI-H23. Further, the GI50 was 41.3 µM (inactive) in the assay with UO-31; 67.8 µM (inactive) in the assay on HOP-62; > 100 µM (inactive) in the assay with LXFL 529; 79.6 µM (inactive) with BT-549; > 79.4 µM (inactive) in the assay on A549; > 100 µM (inactive) in the assay on NCI-H226. Moreover, the GI50 with HT-29 is 16.1 µM (inactive); in the assay on Malme-3M, > 100 µM (inactive); with HL-60, 34.2 µM (inactive); with OVCAR-3, 28.6 µM (inactive); in the assay on SF-539, > 86.7 µM (inactive); in the assay with SNB-19, > 76.7 µM (inactive). Also, in the assay with OVCAR-5, the GI50 is > 100 µM (inactive).
As to `O=C(O)C1Cc2[nH]cnc2CN1` (configuration not stated), the GI50 in the assay on SF-295 was > 100 µM (inactive); in the assay on SK-MEL-2, > 100 µM (inactive); with HCT-15, above 100 µM; in the assay with 786-0, > 100 µM (inactive); in the assay with K562 it was > 100 µM (inactive); in the assay with NCI-H23, > 100 µM (inactive). Moreover, the GI50 in the assay with UO-31, with LXFL 529, in the assay with A549, with NCI-H226, in the assay on HT-29 and in the assay on Malme-3M was > 100 µM (inactive) in each case. Besides, the GI50 in the assay on HL-60, with OVCAR-3, in the assay with SNB-75, with SF-539, in the assay with SNB-19 and with OVCAR-5 was > 100 µM (inactive) in each case.
For the compound `CCOC(=O)C(Cc1ccc([N+](=O)[O-])cc1)NC(=O)CC1c2ccccc2-c2ccccc21` (configuration not stated), the GI50 in the assay with SF-295 was 51.5 µM (inactive); with SK-MEL-2, 45.1 µM (inactive); in the assay with HCT-15, above 100 µM; in the assay with 786-0, 39.1 µM (inactive); with K562 it was > 100 µM (inactive); in the assay on NCI-H23, > 100 µM (inactive). The GI50 with UO-31 was > 100 µM (inactive); in the assay with HOP-62 it was 35.2 µM (inactive); in the assay with LXFL 529, > 100 µM (inactive); in the assay with A549 it was 81.8 µM (inactive); in the assay on NCI-H226, > 100 µM (inactive); in the assay with HT-29, > 100 µM (inactive). In addition, the GI50 with Malme-3M is 20.6 µM (inactive); in the assay on HL-60, > 100 µM (inactive); in the assay on OVCAR-3, > 100 µM (inactive); with SNB-75, 26.1 µM (inactive); with SF-539, 27.9 µM (inactive); in the assay on SNB-19 it was 39.3 µM (inactive).
As for `O=S(=O)(O)c1cc(O)c2c(O)c(/N=N/c3ccc(/C=C/c4ccc(/N=N/c5c(S(=O)(=O)O)cc6cc(S(=O)(=O)O)cc(O)c6c5O)cc4S(=O)(=O)O)c(S(=O)(=O)O)c3)c(S(=O)(=O)O)cc2c1`, the GI50 in the assay on SF-295 was > 100 µM (inactive); in the assay on SK-MEL-2, > 100 µM (inactive); in the assay with HCT-15 it was above 100 µM; with 786-0, > 100 µM (inactive); in the assay on K562, > 100 µM (inactive); with NCI-H23 it was > 100 µM (inactive). The GI50 with UO-31, with HOP-62, in the assay on LXFL 529, in the assay on A549, with NCI-H226 and in the assay on HT-29 was > 100 µM (inactive) in each case. For the same compound, the GI50 in the assay with Malme-3M, in the assay on HL-60, in the assay with OVCAR-3, in the assay on SNB-75, in the assay with SF-539 and in the assay on SNB-19 was > 100 µM (inactive) in each case. Moreover, in the assay on OVCAR-5, the GI50 was > 100 µM (inactive).
As to `COc1cc(CC(C)N)ccc1O` (configuration not stated), the GI50 is > 100 µM (inactive) in the assay with SF-295; > 100 µM (inactive) in the assay on SK-MEL-2; above 100 µM in the assay on HCT-15; > 100 µM (inactive) with 786-0; > 100 µM (inactive) with K562; > 100 µM (inactive) in the assay with NCI-H23. Moreover, the GI50 with UO-31, with HOP-62, in the assay with LXFL 529, in the assay with A549, in the assay with NCI-H226 and in the assay with HT-29 was > 100 µM (inactive) in each case. The GI50 in the assay with Malme-3M, with HL-60, in the assay with OVCAR-3, in the assay with SNB-75, in the assay on SF-539 and in the assay with SNB-19 was > 100 µM (inactive) throughout. In the assay with OVCAR-5, the GI50 was > 100 µM (inactive).
